Source: patent publication US6057450A, “Derivatives of pyroglutaminic acid preparation process and applications” (Totiam, S.L., priority 1994, dated 2000)

B1: rhG-CSF: recombinant human Granulocyte Colony Stimulating Factor (protein, UniProt P09919 31-207, looked up)
Granulocyte …: TPLGPASSLPQSFLLKCLEQVRKIQGDGAALQEKLVSECATYKLCHPEELVLLGHSLGIPWAPLSSCPSQALQLAGCLSQLHSGLFLYQGLLQALEGISPELGPTLDTLQLDVADFATTIWQQMEELGMAPALQPTQGAMPAFASAFQRRAGGVLVASHLQSFLEVSYRVLRHLAQP

Key:
human lymphocytes = assay: in vitro non-specific lymphoproliferative response (RLP-I) to PHA, human lymphocyte cultures; format: cell-based; settings: for RLP-I B < A, number of witness models / RLP-I B < A, percentage of witness models / RLP-I B > A, number of witness models / RLP-I B > A, percentage of witness models: Table V, PHA + BRM-BLAS (B) versus PHA (A); for number of cases with RLP-I B > A in 67% of the witness models / percentage of cases with RLP-I B > A in 33-50% of the witness models / percentage of cases with RLP-I B > A in 67% of the witness models / number of cases with RLP-I B > A in 33-50% of the witness models / number of cases with RLP-I B > A in 100% of the witness models / percentage of cases with RLP-I B > A in 100% of the witness models: Table VI, intragroup individual analysis
Description: The "in vitro" lymphocyte response has been assessed in samples of circulating and peripheral venous blood from asymptomatic blood donor adults of both sexes. In general, the lymphocyte cultures include in each case six experimental models called witnesses, and incorporate progressive doses between 0.25-6.0 units (20-500 ng) of the BRM-BLAS compounds and PHA. The RLP-I of each one has been morphologically determined and is expressed in absolute values of lymphoblasts/10,000.
Systematically, in all the cases it has been tabulated the RLP-I to the PHA, basal, of the PHA models; to the PHA+BRM-BLAS, of the "witness" models and the maximum individual response of the witness models (RMC), in each case.

[1] = test system: circulating peripheral blood lymphocytes; assay: in vivo lymphocyte kinetics / response in asymptomatic rabbits; parameters: species or system New Zealand's albino, giant rabbits
Text: (§1) The pharmacodynamic study to assess the leuko-lymphocyte kinetics has been carried out in New Zealand's albino, giant, female, adult, asymptomatic (healthy) rabbits. The blood samples with EDTA (ethylene-diamino-tetraAcetic acid), non-coagulable, for the periodical weekly controls, have been obtained by aseptic puncture from the marginal vein of the outer ear. The count and the differential cytologic survey of the white series has been routinely performed in a "Coulter" (Coulter Cientifica, S.A., STKs model) differential analyzer, within the two hours following the extraction.
Hereinafter, there is a summary of the most significant results of the preclinical protocols which include different experimental conditions, different BRM-BLAS products and doses which vary in vary of their concentration of the product, frequency and number. […]
This study comprises three concatenated experimental situations. The first one is focused on the vicissitudes of the leuko-lymphocyte kinetics occurred during a pause, "first" moment, that takes place months after several doses, mainly of BRM-BLAS 236 (Cl) compounds and includes 30 individual assessments (6 of the group) days 0 to 39. The second "second" moment, is centered on the successive changes occurred after the administration on the 39th day of an intravenous dose of 8 u/Kg (0.6 mcg/Kg) of the BRM-BLAS 278 (Ac) compounds and includes a total of 25 individual assessments (5 of the group), days 43rd to 68th. The third one, moments "third" to "seventh", analyzes the changes induced after the intravenous administration on the 68th day of 22 u/Kg (1.8 mcg/Kg) of BRM-BLAS 320 (Ac) compounds and includes […] (6 of the group×5 times), days 75th to 287th of the study. The assessment prior to the last dose, the lymphocyte average of which is the lowest of the group during the study, has been selected as the common baseline (100%) for reference of the comparative analysis between the assessments.

Swiss mice = assay: single-dose intraperitoneal toxicity in mice; settings: i.p. single dose; 236 (Cl) 800 mcg/Kg, 278 (Ac) 4.2 mg/Kg, 320 (Ac) 4.8 mg/Kg, respectively
[2] = test system: circulating peripheral blood leukocytes; assay: in vivo leukocyte kinetics / response in asymptomatic rabbits; parameters: species or system New Zealand's albino, giant rabbits; settings: s.c. 30 u/Kg
Text: as §1
Hereinafter, there is a summary of the most significant results of the preclinical protocols which include different experimental conditions, different BRM-BLAS products and doses which vary in vary of their concentration of the product, frequency and number.
The leuko-lymphocyte mean values of the group run parallelly during the study, in general above the respective basal values before the treatment to which they return in the last two assessments. They reach the higher ones 7, 16 and 20 days after the first, second and third dose, FIG. 12, FIG. 13 and Table VIII (assessments: 3, 8 and 13).
A total number of 225 individual assessments and 45 of the group assessments have been performed, grouped in four evolutive periods moments. The "first" one includes the 40 individual assessments (8 of the group) after the two first doses, days 0 to 43rd; the "second", the 85 (17 of the group) after the third, fourth and fifth doses, days 46th to 147th; the "third", the first 50 (10 of the group) after the sixth, days 153rd to 213th, and the "fourth", the last 50 (10 of the group), days 220th to 282nd, respectively. The assessment of the group prior to the third dose (43rd day), the lymphocyte mean of which has been the lowest during the survey, has been taken as the natural reference baseline for the comparative analysis of punctual and grouped data.
This trail is subsequent to the protocol previously described and corresponds to the "fifth" moment of the global study, FIG. 14 and FIG. 15.
After the subcutaneous administration of a dose of 30 u/Kg (2.1 mcg/Kg) of the BRM-BLAS 278 (Cl) compounds 137 days after the sixth dose of the BRM-BLAS 320 (Ac) compounds, in the presence of high figures of the lymphocyte mean of the group, at the "fourth" moment, such figures were specifically exceeded by the 4th and 5th punctual weekly assessments of the "fifth" moment, 24th (184%) and 31st (180%) days, respectively, FIG. 14. Globally, 28% of the assessment exceed basal values by one or two standard deviations; 57% in three, and the difference is statistically in all of them. The resulting mean of the data gathered for the "fifth" moment with a 158% of the basal values, exceed those of the four previous moments, and the difference is statistically significant compared with those of the "first", "second" and "third", and exceeds that of the "first" in more than one standard deviation, FIG. 15 and (Table IX). […]

patients = settings: cited from earlier work; for effect on circulating granulocytes: cancer patients in the absence of a myelodepression

Molecule | number of cases with RLP-I B > A in 67% of the witness models (human lymphocytes) | percentage of cases with RLP-I B > A in 33-50% of the witness models (human lymphocytes) | percentage of cases with RLP-I B > A in 67% of the witness models (human lymphocytes) | RLP-I B < A, number of witness models (human lymphocytes) | RLP-I B < A, percentage of witness models (human lymphocytes) | RLP-I B > A, number of witness models (human lymphocytes) | RLP-I B > A, percentage of witness models (human lymphocytes) | number of cases with RLP-I B > A in 33-50% of the witness models (human lymphocytes) | number of cases with RLP-I B > A in 100% of the witness models (human lymphocytes) | percentage of cases with RLP-I B > A in 100% of the witness models (human lymphocytes) | effect on circulating granulocytes (patients) | further results
NC1(C[n+]2ccccc2)CC(C(=O)O)NC1=O (centres unmarked) [BRM-BLAS 236 (Ac), 4-amino-4-(1-pyridiniomethyl) pyroglutamic acid acetate] | 12 Num. | 100% | 82% |  |  |  |  |  |  |  |  | RLP-I B < A, number of witness models (human lymphocytes; acetate): 17 Num.; RLP-I B < A, percentage of witness models (human lymphocytes; acetate): 19%; RLP-I B > A, number of witness models (human lymphocytes; acetate): 73 Num.; RLP-I B > A, percentage of witness models (human lymphocytes; acetate): 81%; number of cases with RLP-I B > A in 33-50% of the witness models (human lymphocytes; acetate): 15 Num.; number of cases with RLP-I B > A in 100% of the witness models (human lymphocytes; acetate): 6 Num.; percentage of cases with RLP-I B > A in 100% of the witness models (human lymphocytes; acetate): 40%
CC(=O)N1C(=O)C(N)(C[n+]2ccccc2)CC1C(=O)O (centres unmarked) [BRM-BLAS 278 (Ac), 1-acetyl-4-amino-4-(1-pyridiniomethyl) pyroglutamic acid acetate] | 6 Num. | 100% | 67% | 14 Num. | 26% | 40 Num. | 74% | 9 Num. | 3 Num. | 33% |  | lymphocyte group mean after low dose ([1]; single i.v. low dose 8 u/Kg (0.6 mcg/Kg), fifth assessment): the group mean in the fifth assessment appears in the basal line of the histogram; tolerance / toxicity, single dose (Swiss mice): perfectly tolerated without evidences of toxicity
CC(=O)N1C(=O)C(N)(C[n+]2ccccc2)CC1C(=O)O (centres unmarked) [BRM-BLAS 278 (Cl), 1-acetyl-4-ammonium-4-(1-pyridiniomethyl) pyroglutamic acid dichloride] | 13 Num. | 100% | 81% | 16 Num. | 17% | 77 Num. | 83% | 16 Num. | 6 Num. | 37% |  | animals with leukocyte mean at "fifth" exceeding "first" moment by more than two standard deviations [2]: 40%; assessments with leukocyte mean exceeding basal by one standard deviation ([2]; "fifth" moment): 57%; assessments with statistically significant leukocyte difference ([2]; "fifth" moment): 29%; animals with lymphocyte mean "fifth" versus "first" moment higher than three standard deviations ([1]; s.c. 30 u/Kg): 80%; animals with lymphocyte mean "fifth" versus "first" moment higher than two standard deviations ([1]; s.c. 30 u/Kg): 20%; grouped lymphocyte mean versus basal, "fifth" moment ([1]; s.c. 30 u/Kg, "fifth" moment): 158%; lymphocyte mean versus basal, 24th day ([1]; s.c. dose 30 u/Kg (2.1 mcg/Kg) 137 days after BRM-BLAS 320 (Ac), 24th day, "fifth" moment): 184%; lymphocyte mean versus basal, 31st day ([1]; s.c. dose 30 u/Kg (2.1 mcg/Kg) 137 days after BRM-BLAS 320 (Ac), 31st day, "fifth" moment): 180%
CC(=O)NC1(C[n+]2ccccc2)CC(C(=O)O)N(C(C)=O)C1=O (centres unmarked) [BRM-BLAS 320 (Cl), 1-acetyl-4-acetylamino-4-(1-pyridiniomethyl) pyroglutamic acid chloride] | 11 Num. | 100% | 69% | 29 Num. | 30% | 67 Num. | 70% | 16 Num. | 2 Num. | 13% |  | 
rhMG-CSF: recombinant human Macrophage Granulocyte Colony Stimulating Factor |  |  |  |  |  |  |  |  |  |  | neutrophiles and eosinophile | duration of the neutropenia (patients; administration prior to chemotherapy): notably reduces the duration of the neutropenia; side effects (patients; human, in vivo): fever, bone ache, pericarditis, hypotension; deaths from sepsis (patients; patients who received rhMG-CSF): 2 out of 14; systemic bacterial and viral infections (patients; severe chronic neutropenia or after transplant of bone marrow): drastically decreases systemic bacterial and viral infections
B1 |  |  |  |  |  |  |  |  |  |  | great increase in the number of circulating (peripheral blood) polymorphonuclear neutrophile | 
